Source: US20230103631A1, “PEPTIDES AS SELECTIVE GIP RECEPTOR AGONISTS” (Sanofi, priority 2020, published 2023)
*1 amine or outer side, *2 acyl side, *3 side chain or, on linkers, in order; H or OH if unused. Where a SMILES comes first, the peptide text is derived from it. Side-chain parts run from the residue outwards. [ ]: non-standard residue; d: D form. The star is where a group is joined. C20 diacid = O=C(O)CCCCCCCCCCCCCCCCCCC(=O)*; C18 diacid = O=C(O)CCCCCCCCCCCCCCCCC(=O)*; γGlu = O=C(O)[C@H](CCC(=O)[*:2])N[*:1]; AEEA = NCCOCCOCC(=O)O; Aib = CC(C)(N)C(=O)O; Sar = CNCC(=O)O

How the values were obtained:
[1] = biological target: human GLP-1 receptor (hGLP-1R) (Homo sapiens, UniProt P43220); experiment: cAMP HTRF assay, HEK-293 cell line over-expressing human GLP-1 receptor; format: cell-based; settings: HEK-293, cAMP, 0% HSA
Sequence of human GLP-1 receptor (hGLP-1R) (P43220 24-463): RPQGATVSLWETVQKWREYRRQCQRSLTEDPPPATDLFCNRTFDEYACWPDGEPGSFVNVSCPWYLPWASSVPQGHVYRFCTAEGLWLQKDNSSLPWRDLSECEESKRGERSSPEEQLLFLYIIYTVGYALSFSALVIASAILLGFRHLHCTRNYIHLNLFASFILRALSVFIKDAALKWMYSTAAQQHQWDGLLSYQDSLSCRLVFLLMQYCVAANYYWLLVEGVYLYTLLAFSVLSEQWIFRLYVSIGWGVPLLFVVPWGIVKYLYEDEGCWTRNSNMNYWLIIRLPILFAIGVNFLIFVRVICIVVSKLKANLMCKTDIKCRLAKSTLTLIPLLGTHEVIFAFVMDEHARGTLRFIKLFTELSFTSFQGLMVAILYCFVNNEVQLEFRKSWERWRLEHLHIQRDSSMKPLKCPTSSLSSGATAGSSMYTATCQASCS
Description: Each vial contained 1.8 ml cells. The vials were slowly frozen to −80° C. in isopropanol, and then transferred in liquid nitrogen for storage.
Prior to their use, frozen cells were thawed quickly at 37° C. and washed (5 min at 900 rpm) with 20 ml cell buffer (1× HBSS; 20 mM HEPES, plus 0.1% HSA if indicated in Example conditions).
For measurement of cAMP generation, 5 μl cells (final 5000 cells/well) and 5 μl of test compound were added to a 384-well plate, followed by incubation for 30 min at room temperature.
The cAMP generated was determined using a kit from Cisbio Corp. based on HTRF (Homogenous Time Resolved Fluorescence). The cAMP assay was performed according to manufacturer's instructions (Cisbio).

physchem = format: physicochemical; settings: for Soluble amount: 24 h, pH 7.4; for solubility at 24 h: pH 7.4, Soluble amount
Description: Prior to the solubility measurement of a peptide batch, its purity was determined through UHPLC/MS. […] Therefore, solutions from solid samples were prepared in a buffer system with a concentration of 10 mg/ml compound based on the previously determined % purity: Solubility buffer system A) 100 mM phosphate buffer pH 7.4 […] Solubility buffer system C) 100 mM phosphate buffer pH 7.4, 2.7 mg/ml m-cresol UHPLC-UV was performed after 1 h of gentle agitation and storage at 5° C. over night (24 h) from the supernatant, which was obtained after 15 min of centrifugation at 2500 RCF (relative centrifugal acceleration). […] The different UV extinction coefficients of sample and reference peptide were calculated based on the different amino acid sequences and considered in the concentration calculation. The analytical method used was Analytical UHPLC Method A. Peptide samples were prepared in solubility buffer system A or C and solubility was assessed as described in Methods.

Structure (SMILES) | EC50 [1] | Soluble amount (physchem) | solubility at 24 h (physchem)
CC[C@H](C)[C@H](NC(=O)[C@H](Cc1ccccc1)NC(=O)[C@H](CCC(=O)O)NC(=O)[C@H](CCC(=O)O)NC(=O)[C@H](CCC(N)=O)NC(=O)[C@H](Cc1c[nH]cn1)NC(=O)[C@@H](NC(=O)[C@H](CCCNC(=N)N)NC(=O)[C@H](CC(=O)O)NC(=O)[C@H](CCCCNC(=O)COCCOCCNC(=O)COCCOCCNC(=O)CC[C@H](NC(=O)CC[C@H](NC(=O)CCCCCCCCCCCCCCCCCCC(=O)O)C(=O)O)C(=O)O)NC(=O)C(C)(C)NC(=O)[C@@H](NC(=O)[C@H](CO)NC(=O)[C@H](CC(C)C)NC(=O)[C@H](CC(=O)O)NC(=O)[C@H](CO)NC(=O)[C@@H](NC(=O)[C@H](Cc1ccccc1)NC(=O)[C@@H](NC(=O)CNC(=O)[C@H](CCC(=O)O)NC(=O)C(C)(C)NC(=O)[C@@H](N)Cc1ccc(O)cc1)[C@@H](C)O)[C@@H](C)CC)[C@@H](C)CC)[C@@H](C)CC)C(=O)N[C@@H](CCC(=O)O)C(=O)N[C@@H](Cc1c[nH]c2ccccc12)C(=O)N[C@@H](CC(C)C)C(=O)N[C@@H](CC(C)C)C(=O)N[C@@H](C)C(=O)N[C@@H](CCC(N)=O)C(=O)NCC(=O)N1CCC[C@H]1C(=O)N[C@@H](CO)C(=O)N[C@@H](CO)C(=O)NCC(=O)N[C@@H](C)C(=O)N1CCC[C@H]1C(=O)N1CCC[C@H]1C(=O)N1CCC[C@H]1C(=O)N[C@@H](CO)C(N)=O [SEQ ID NO: 15, H2N-Y-Aib-E-G-T-F-I-S-D-I-S-I-Aib-K[{AEEA}2-{gGlu}2-C20OH]-DRIHQEEFIEWILAQGPSSGAPPPS-NH2] (H-Y[Aib]EGTFISDLSI[Aib]K([AEEA-AEEA-γGlu-γGlu-C20 diacid])DRIHQEEFIEWLLAQGPSSGAPPPS-NH2) | > 0.01 µM | >9.2 mg/mL | > 10.3 mg/mL
CC[C@H](C)[C@H](NC(=O)[C@H](Cc1ccccc1)NC(=O)[C@H](CCC(=O)O)NC(=O)[C@H](CCC(=O)O)NC(=O)[C@H](CCC(N)=O)NC(=O)[C@H](Cc1c[nH]cn1)NC(=O)[C@@H](NC(=O)[C@H](CCCNC(=N)N)NC(=O)[C@H](CC(=O)O)NC(=O)[C@H](CCCCNC(=O)CNC(=O)CNC(=O)CNC(=O)CC[C@H](NC(=O)CCCCCCCCCCCCCCCCC(=O)O)C(=O)O)NC(=O)C(C)(C)NC(=O)[C@@H](NC(=O)[C@H](CO)NC(=O)[C@H](CC(C)C)NC(=O)[C@H](CC(=O)O)NC(=O)[C@H](CO)NC(=O)[C@@H](NC(=O)[C@H](Cc1ccccc1)NC(=O)[C@@H](NC(=O)CNC(=O)[C@H](CCC(=O)O)NC(=O)C(C)(C)NC(=O)[C@@H](N)Cc1ccc(O)cc1)[C@@H](C)O)[C@@H](C)CC)[C@@H](C)CC)[C@@H](C)CC)C(=O)N[C@@H](CCC(=O)O)C(=O)N[C@@H](Cc1c[nH]c2ccccc12)C(=O)N[C@@H](CC(C)C)C(=O)N[C@@H](CC(C)C)C(=O)N[C@@H](C)C(=O)N[C@@H](CCC(N)=O)C(=O)NCC(=O)N1CCC[C@H]1C(=O)N[C@@H](CO)C(=O)N[C@@H](CO)C(=O)NCC(=O)N[C@@H](C)C(=O)N1CCC[C@H]1C(=O)N1CCC[C@H]1C(=O)N1CCC[C@H]1C(=O)N[C@@H](CO)C(N)=O [SEQ ID NO: 16, H2N-Y-Aib-E-G-T-F-I-S-D-I-S-I-Aib-K[{Gly}3-gGlu-C18OH]-DRIHQEEFIEWILAQGPSSGAPPPS-NH2] (H-Y[Aib]EGTFISDLSI[Aib]K([Gly-Gly-Gly-γGlu-C18 diacid])DRIHQEEFIEWLLAQGPSSGAPPPS-NH2) | > 0.01 µM | >9.9 mg/mL | > 10 mg/mL
CC[C@H](C)[C@H](NC(=O)[C@H](Cc1ccccc1)NC(=O)[C@H](CCC(=O)O)NC(=O)[C@H](CCC(=O)O)NC(=O)[C@H](CCC(N)=O)NC(=O)[C@H](Cc1c[nH]cn1)NC(=O)[C@@H](NC(=O)[C@H](CCCNC(=N)N)NC(=O)[C@H](CC(=O)O)NC(=O)[C@H](CCCCNC(=O)CN(C)C(=O)CN(C)C(=O)CN(C)C(=O)CC[C@H](NC(=O)CCCCCCCCCCCCCCCCC(=O)O)C(=O)O)NC(=O)C(C)(C)NC(=O)[C@@H](NC(=O)[C@H](CO)NC(=O)[C@H](CC(C)C)NC(=O)[C@H](CC(=O)O)NC(=O)[C@H](CO)NC(=O)[C@@H](NC(=O)[C@H](Cc1ccccc1)NC(=O)[C@@H](NC(=O)CNC(=O)[C@H](CCC(=O)O)NC(=O)C(C)(C)NC(=O)[C@@H](N)Cc1ccc(O)cc1)[C@@H](C)O)[C@@H](C)CC)[C@@H](C)CC)[C@@H](C)CC)C(=O)N[C@@H](CCC(=O)O)C(=O)N[C@@H](Cc1c[nH]c2ccccc12)C(=O)N[C@@H](CC(C)C)C(=O)N[C@@H](CC(C)C)C(=O)N[C@@H](C)C(=O)N[C@@H](CCC(N)=O)C(=O)NCC(=O)N1CCC[C@H]1C(=O)N[C@@H](CO)C(=O)N[C@@H](CO)C(=O)NCC(=O)N[C@@H](C)C(=O)N1CCC[C@H]1C(=O)N1CCC[C@H]1C(=O)N1CCC[C@H]1C(=O)N[C@@H](CO)C(N)=O [SEQ ID NO: 17, H2N-Y-Aib-E-G-T-F-I-S-D-I-S-I-Aib-K[{N-MeGly}3-gGlu-C18OH]-DRIHQEEFIEWILAQGPSSGAPPPS-NH2] (H-Y[Aib]EGTFISDLSI[Aib]K([Sar-Sar-Sar-γGlu-C18 diacid])DRIHQEEFIEWLLAQGPSSGAPPPS-NH2) | > 0.01 µM | >11.8 mg/mL | > 10.9 mg/mL
